What was measured:
Type in all cases: in vivo
Design in all cases: key: A: No diseased area; B: Diseased area of less than 25%; C: Diseased area of at least 25% but less than 50%; Diseased area of at least 50%
[1] = system: Pseudoperonospora cubensis; test: Test for Preventive Effect on Cucumber Downy Mildew; details: cucumber seedlings, wettable powder at 500 ppm active ingredient, 7 days after inoculation
Method: Test for Preventive Effect on Cucumber Downy Mildew 9 cucumber seeds (variety: Sagami-hanpaku) were sown in each 9 cmx9 cm polyvinyl chloride pot and grown in a greenhouse for 7 days. […] Then, the seedlings were inoculated with Pseudoperonospora cubensis zoosporangia in suspension by spraying and immediately placed in a moist chamber at 22° C. for 24 hours. Thereafter, the seedlings were placed in a greenhouse. 7 days after the inoculation, the total diseased area in each pot was observed and evaluated on the basis of the standards shown in Table 59. [table]

Erysiphe graminis = test: Test for Preventive Effect on Wheat Powdery Mildew; details: wheat seedlings (Norin-61-go), 500 ppm active ingredient, 10 ml per pot, 10 days after inoculation
Method: [table] Test for Preventive Effect on Wheat Powdery Mildew 9 wheat seeds (variety: […] Then, the seedlings were inoculated with […] graminis spores in suspension and placed in a greenhouse at 25 to 30° C. 10 days after the inoculation, the total diseases area of the first leaves in each pot was observed and evaluated on the basis of the standards shown in Table 59. The results are shown in Tables 67 to 71.

Venturia inaequalis = test: Test for Preventive Effect on Apple Scab; details: 14 days after inoculation; for Evaluation (diseased area of the upper two inoculated leaves): apple seedlings (Kogyoku), 500 ppm active ingredient, 20 ml per pot; for Evaluation (diseased areas of the upper two of the inoculated leaves): apple seedlings, wettable powder at 500 ppm active ingredient, preventive
Method: [table] Test for Preventive Effect on Apple Scab 5 apple seeds (variety: Kogyoku) were sown in each 9 cm×9 cm polyvinyl chloride pot and grown in a greenhouse for 20 days. […] Then, the seedlings were inoculated with Venturia inaequalis spores in suspension by spraying and immediately placed in a moist chamber at 22° C. for 48 hours. Thereafter, the seedlings were placed in a greenhouse for development of the disease. 14 days after the inoculation, the diseased areas of the upper two of the inoculated leaves were observed and evaluated on the basis of the standards shown in Table 59.

Botrytis cinerea = test: Test for Preventive Effect on Cucumber Gray Mold; details: cotyledonary cucumber seedlings (Sagami-hanziro), 500 ppm active ingredient, 10 ml per pot, 3 days after inoculation
Method: [table] Test for Preventive Effect on Cucumber Gray Mold 9 cucumber seeds (variety: Sagami-hanziro) were sown in each 9 cm−9 cm polyvinyl chloride pot and grown in a greenhouse for 7 days. […] Then, the seedlings were inoculated with milled Botrytis cinerea hyphae in solution by spraying and immediately placed in a moist chamber at 22° C. 3 days after the inoculation, the total diseased area in each pot was observed and evaluated on the basis of the standards shown in Table 59.

With `COC(=O)NC(C)c1cccc(-c2ccccc2)c1` (racemic) [3-1] the “Evaluation (total diseased area in each pot)” value [1] was “A”, the “Evaluation (total diseased area of the first leaves in each pot)” value (Erysiphe graminis) was “B (Diseased area of less than 25%)” and the “Evaluation (diseased area of the upper two inoculated leaves)” value (Venturia inaequalis) was “A”.
In the case of `COC(=O)NC(C)c1cccc(-c2ccc(Cl)cc2)c1` (racemic) [3-5], the “Evaluation (total diseased area of the first leaves in each pot)” value (Erysiphe graminis) was “B (Diseased area of less than 25%)”, the “Evaluation (total diseased area in each pot)” value (Botrytis cinerea) was “B (Diseased area of less than 25%)” and the “Evaluation (diseased area of the upper two inoculated leaves)” value (Venturia inaequalis) was “A”.
With `COC(=O)NC(C)c1cccc(-c2cccc(C)c2)c1` (racemic) [3-6] the “Evaluation (total diseased area in each pot)” value [1] was “A”, the “Evaluation (total diseased area of the first leaves in each pot)” value (Erysiphe graminis) was “A” and the “Evaluation (diseased area of the upper two inoculated leaves)” value (Venturia inaequalis) was “A”.
For `COC(=O)NC(C)c1cccc(-c2cccc(C(F)(F)F)c2)c1` (racemic) [3-16], the “Evaluation (total diseased area in each pot)” value [1] was “A”, the “Evaluation (total diseased area of the first leaves in each pot)” value (Erysiphe graminis) was “A” and the “Evaluation (diseased area of the upper two inoculated leaves)” value (Venturia inaequalis) was “A”.
`COC(=O)NC(C)c1cccc(-c2ccc(F)c(Cl)c2)c1` (racemic) [3-21] was tested, and the “Evaluation (total diseased area in each pot)” value [1] was “A”, the “Evaluation (total diseased area of the first leaves in each pot)” value (Erysiphe graminis) was “B (Diseased area of less than 25%)” and the “Evaluation (diseased area of the upper two inoculated leaves)” value (Venturia inaequalis) was “A”.
In the case of `COC(=O)NC(C)c1cc(-c2ccc(F)cc2)ccc1F` (racemic) [3-28], the “Evaluation (total diseased area of the first leaves in each pot)” value (Erysiphe graminis) was “B (Diseased area of less than 25%)”, the “Evaluation (total diseased area in each pot)” value (Botrytis cinerea) was “B (Diseased area of less than 25%)” and the “Evaluation (diseased area of the upper two inoculated leaves)” value (Venturia inaequalis) was “A”.
In the case of `COC(=O)NC(C)c1cc(-c2ccc(Cl)cc2)ccc1F` (racemic) [3-30], the “Evaluation (total diseased area of the first leaves in each pot)” value (Erysiphe graminis) was “B (Diseased area of less than 25%)”, the “Evaluation (total diseased area in each pot)” value (Botrytis cinerea) was “B (Diseased area of less than 25%)” and the “Evaluation (diseased area of the upper two inoculated leaves)” value (Venturia inaequalis) was “B (Diseased area of less than 25%)”.
With `COC(=O)NCc1cccc(-c2cccc(Cl)c2)c1` [1-3] the “Evaluation (total diseased area in each pot)” value [1] was “A”, the “Evaluation (total diseased area of the first leaves in each pot)” value (Erysiphe graminis) was “A” and the “Evaluation (diseased areas of the upper two of the inoculated leaves)” value (Venturia inaequalis) was “A”.
With `COC(=O)NCc1cccc(-c2ccc(Cl)cc2)c1` [1-4] the “Evaluation (total diseased area of the first leaves in each pot)” value (Erysiphe graminis) was “B (Diseased area of less than 25%)”, the “Evaluation (total diseased area in each pot)” value (Botrytis cinerea) was “A” and the “Evaluation (diseased areas of the upper two of the inoculated leaves)” value (Venturia inaequalis) was “A”.
For `COC(=O)NCc1cccc(-c2ccc(F)cc2)c1` [1-7], the “Evaluation (total diseased area in each pot)” value [1] was “B (Diseased area of less than 25%)”, the “Evaluation (total diseased area of the first leaves in each pot)” value (Erysiphe graminis) was “A” and the “Evaluation (diseased areas of the upper two of the inoculated leaves)” value (Venturia inaequalis) was “A”.
In the case of `COC(=O)NCc1cccc(-c2ccccc2C(F)(F)F)c1` [1-33], the “Evaluation (total diseased area in each pot)” value [1] was “B (Diseased area of less than 25%)”, the “Evaluation (total diseased area of the first leaves in each pot)” value (Erysiphe graminis) was “A” and the “Evaluation (diseased areas of the upper two of the inoculated leaves)” value (Venturia inaequalis) was “A”.
For `COC(=O)NCc1cccc(-c2cccc(C(F)(F)F)c2)c1` [1-34], the “Evaluation (total diseased area in each pot)” value [1] was “A”, the “Evaluation (total diseased area of the first leaves in each pot)” value (Erysiphe graminis) was “A” and the “Evaluation (diseased areas of the upper two of the inoculated leaves)” value (Venturia inaequalis) was “A”.
For `COC(=O)NCc1cccc(-c2ccc(C(F)(F)F)cc2)c1` [1-35], the “Evaluation (total diseased area of the first leaves in each pot)” value (Erysiphe graminis) was “A”, the “Evaluation (total diseased area in each pot)” value (Botrytis cinerea) was “B (Diseased area of less than 25%)” and the “Evaluation (diseased areas of the upper two of the inoculated leaves)” value (Venturia inaequalis) was “A”.
For `COC(=O)NCc1cccc(-c2cccc(OC)c2)c1` [1-41], the “Evaluation (total diseased area in each pot)” value [1] was “A”, the “Evaluation (total diseased area of the first leaves in each pot)” value (Erysiphe graminis) was “A” and the “Evaluation (diseased areas of the upper two of the inoculated leaves)” value (Venturia inaequalis) was “A”.
With `COC(=O)NCc1cccc(-c2ccc(OC)cc2)c1` [1-42] the “Evaluation (total diseased area of the first leaves in each pot)” value (Erysiphe graminis) was “B (Diseased area of less than 25%)”, the “Evaluation (total diseased area in each pot)” value (Botrytis cinerea) was “B (Diseased area of less than 25%)” and the “Evaluation (diseased areas of the upper two of the inoculated leaves)” value (Venturia inaequalis) was “A”.
In the case of `COC(=O)NCc1cccc(-c2cccc([N+](=O)[O-])c2)c1` [1-103], the “Evaluation (total diseased area in each pot)” value [1] was “B (Diseased area of less than 25%)” and the “Evaluation (diseased areas of the upper two of the inoculated leaves)” value (Venturia inaequalis) was “A”.
In the case of `COC(=O)NCc1cccc(-c2ccc(Cl)c(Cl)c2)c1` [1-118, Methyl N-[3-(3,4-dichlorophenyl)benzyl]carbamate], the “Evaluation (total diseased area in each pot)” value [1] was “B (Diseased area of less than 25%)”, the “Evaluation (total diseased area of the first leaves in each pot)” value (Erysiphe graminis) was “A” and the “Evaluation (diseased areas of the upper two of the inoculated leaves)” value (Venturia inaequalis) was “A”.
`COC(=O)NCc1cccc(-c2cc(Cl)cc(Cl)c2)c1` [1-119] was tested, and the “Evaluation (total diseased area in each pot)” value [1] was “B (Diseased area of less than 25%)”, the “Evaluation (total diseased area of the first leaves in each pot)” value (Erysiphe graminis) was “A” and the “Evaluation (diseased areas of the upper two of the inoculated leaves)” value (Venturia inaequalis) was “A”.
With `COC(=O)NCc1cccc(-c2ccc(C)c(C)c2)c1` [1-125] the “Evaluation (total diseased area in each pot)” value [1] was “A”, the “Evaluation (total diseased area of the first leaves in each pot)” value (Erysiphe graminis) was “A” and the “Evaluation (diseased areas of the upper two of the inoculated leaves)” value (Venturia inaequalis) was “A”.
In the case of `CNC(=O)NCc1cccc(-c2ccccc2)c1` [1-253], the “Evaluation (total diseased area in each pot)” value [1] was “B (Diseased area of less than 25%)”.
`COC(=O)N(Cc1cccc(-c2cccc(C)c2)c1)OC` [1-266] was tested, and the “Evaluation (total diseased area in each pot)” value [1] was “B (Diseased area of less than 25%)”, the “Evaluation (total diseased area of the first leaves in each pot)” value (Erysiphe graminis) was “A” and the “Evaluation (diseased areas of the upper two of the inoculated leaves)” value (Venturia inaequalis) was “A”.
With `COC(=O)NCc1ccc(OC)c(-c2ccccc2)c1` [2-65] the “Evaluation (total diseased area in each pot)” value (Botrytis cinerea) was “B (Diseased area of less than 25%)” and the “Evaluation (diseased areas of the upper two of the inoculated leaves)” value (Venturia inaequalis) was “B (Diseased area of less than 25%)”.
With `COC(=O)NCc1cc(C)cc(-c2ccccc2)c1` [2-91] the “Evaluation (total diseased area in each pot)” value [1] was “B (Diseased area of less than 25%)”, the “Evaluation (total diseased area of the first leaves in each pot)” value (Erysiphe graminis) was “A” and the “Evaluation (diseased areas of the upper two of the inoculated leaves)” value (Venturia inaequalis) was “A”.
`COC(=O)NCc1cc(C)cc(-c2cccc(C(F)(F)F)c2)c1` [2-98] was tested, and the “Evaluation (total diseased area in each pot)” value [1] was “B (Diseased area of less than 25%)”, the “Evaluation (total diseased area of the first leaves in each pot)” value (Erysiphe graminis) was “A” and the “Evaluation (diseased areas of the upper two of the inoculated leaves)” value (Venturia inaequalis) was “A”.
For `COC(=O)NCc1cc(-c2ccccc2)ccc1F` [2-102], the “Evaluation (total diseased area in each pot)” value [1] was “A”, the “Evaluation (total diseased area of the first leaves in each pot)” value (Erysiphe graminis) was “A” and the “Evaluation (diseased areas of the upper two of the inoculated leaves)” value (Venturia inaequalis) was “A”.
For `COC(=O)NCc1cc(-c2cccc(Cl)c2)ccc1F` [2-106], the “Evaluation (total diseased area in each pot)” value [1] was “A”, the “Evaluation (total diseased area of the first leaves in each pot)” value (Erysiphe graminis) was “A” and the “Evaluation (diseased areas of the upper two of the inoculated leaves)” value (Venturia inaequalis) was “A”.
In the case of `COC(=O)NCc1cc(-c2ccc(Cl)cc2)ccc1F` [2-107], the “Evaluation (total diseased area in each pot)” value [1] was “A”, the “Evaluation (total diseased area of the first leaves in each pot)” value (Erysiphe graminis) was “A” and the “Evaluation (diseased areas of the upper two of the inoculated leaves)” value (Venturia inaequalis) was “A”.
`COC(=O)NCc1cc(-c2cccc(C)c2)ccc1F` [2-109] was tested, and the “Evaluation (total diseased area in each pot)” value [1] was “A”, the “Evaluation (total diseased area of the first leaves in each pot)” value (Erysiphe graminis) was “A” and the “Evaluation (diseased areas of the upper two of the inoculated leaves)” value (Venturia inaequalis) was “A”.
`COC(=O)NCc1cc(-c2ccc(C)cc2)ccc1F` [2-110] was tested, and the “Evaluation (total diseased area in each pot)” value [1] was “A”, the “Evaluation (total diseased area of the first leaves in each pot)” value (Erysiphe graminis) was “B (Diseased area of less than 25%)” and the “Evaluation (diseased areas of the upper two of the inoculated leaves)” value (Venturia inaequalis) was “A”.
With `COC(=O)NCc1cc(-c2cccc(C(C)C)c2)ccc1F` [2-113] the “Evaluation (total diseased area in each pot)” value [1] was “B (Diseased area of less than 25%)”, the “Evaluation (total diseased area of the first leaves in each pot)” value (Erysiphe graminis) was “A” and the “Evaluation (diseased areas of the upper two of the inoculated leaves)” value (Venturia inaequalis) was “A”.
For `COC(=O)NCc1cc(-c2ccc(Cl)cc2)ccc1OC` [2-332], the “Evaluation (total diseased area of the first leaves in each pot)” value (Erysiphe graminis) was “B (Diseased area of less than 25%)”, the “Evaluation (total diseased area in each pot)” value (Botrytis cinerea) was “B (Diseased area of less than 25%)” and the “Evaluation (diseased area of the upper two inoculated leaves)” value (Venturia inaequalis) was “A”.
`COC(=O)NCc1cc(-c2cccc(C)c2)ccc1OC` [2-333] was tested, and the “Evaluation (total diseased area in each pot)” value [1] was “A”, the “Evaluation (total diseased area of the first leaves in each pot)” value (Erysiphe graminis) was “B (Diseased area of less than 25%)” and the “Evaluation (diseased area of the upper two inoculated leaves)” value (Venturia inaequalis) was “A”.
`COC(=O)NCc1cc(-c2cccc(O)c2)ccc1Cl` [2-448] was tested, and the “Evaluation (total diseased area of the first leaves in each pot)” value (Erysiphe graminis) was “A”, the “Evaluation (total diseased area in each pot)” value (Botrytis cinerea) was “A” and the “Evaluation (diseased area of the upper two inoculated leaves)” value (Venturia inaequalis) was “A”.
`COC(=O)NCc1cc(-c2ccc(Br)cc2)ccc1Cl` [2-453] was tested, and the “Evaluation (total diseased area of the first leaves in each pot)” value (Erysiphe graminis) was “A”, the “Evaluation (total diseased area in each pot)” value (Botrytis cinerea) was “A” and the “Evaluation (diseased area of the upper two inoculated leaves)” value (Venturia inaequalis) was “A”.
In the case of `COC(=O)N(Cc1cccc(-c2ccccc2)c1C)OC` [4-22, Methyl N-methoxy-N-(2-methyl-3-phenylbenzyl)carbamate], the “Evaluation (total diseased area of the first leaves in each pot)” value (Erysiphe graminis) was “A” and the “Evaluation (diseased area of the upper two inoculated leaves)” value (Venturia inaequalis) was “A”.
`COC(=O)NCc1cccc(-c2ccc3ccccc3c2C)c1` [6-1] was tested, and the “Evaluation (total diseased area of the first leaves in each pot)” value (Erysiphe graminis) was “B (Diseased area of less than 25%)” and the “Evaluation (diseased area of the upper two inoculated leaves)” value (Venturia inaequalis) was “A”.

Reference: patent publication US6620961B1, “Biarylalkylenecarbamic acid derivatives and bacteriocides for agricultural and horticultural use” (Kumiai Chemical Industry Co., Ltd., priority 1997, dated 2003)
